Results reported in patent publication EP1263420B1 (priority 2000, dated 2001).
Several values for one entry are separate records, joined by “and”; a condition that tells them apart may be missing. Equal values may be shown once.

Tests used:
Assay type in all cases: in vivo
TGase II = TGase II assay of rat liver tissue after inhaled 13-cis RA (experiment B); conditions: for TGase II assay / TGase II assay DPM/µg protein: rat liver
Protocol: (§1) Male rats (n=23) (Sprague-Dawley from Charles River) were divided into six experimental groups and were given varying amounts of 13-cis RA through an inhalant apparatus once daily for different times each day for 14 days. The experimental groups were as follows (Table 1) :1.Vehicle control : rats (3) inhaled vehicle for 240 minutes; 2. Low dose 13-cis RA: rats (4) inhaled a solution containing 13-cis RA at a concentration of 62.2µg/liter (inhaled dose 115.0µg/kg body weight) in 5 minutes; 3. Low-Middle dose 13-cis RA : rats (4) inhaled a solution containing 13-cis RA at a concentration of 62.2µg/liter (inhaled dose 334.4µg/kg body weight) in 15 minutes; 4.Middle dose 13-cis RA: rats (4) inhaled a solution containing 13-cis RA at a concentration of 62.2µg/liter (inhaled dose 1012.3µg/kg body weight) in 45 minutes; 5. Middle-High dose 13-cis RA : rats (4) inhaled a solution containing 13-cis RA at a concentration of 62.2µg/liter (inhaled dose 2843.4µg/kg body weight) in 120 minutes; 6. High dose 13-cis RA : rats (4) inhaled a solution containing 13-cis RA at a concentration of 62.2µg/liter (inhaled dose 5935.6µg/kg body weight) in 240 minutes.
For liver tissue, a piece of approximately 100-400mg was used. Tissue was diced in small pieces and homogenized in approximately 2 volumes of scraping buffer for 2-3 minutes at 4°C. Samples were centrifuged at 14,000xg for 30 minutes at 4°C. The supernatant was removed and kept in ice until used.
Enzyme assay mixtures were prepared by adding 80µl of SUBSTRATE mixture (322.8µl H2O, 120µl 0.5M NaBorate, 60µl 0.01M EDTA, 60µl 0.1M CaCl2, 6µl 1M DTT, 240µl dimethyl casein, 30µl Triton X-100, 1.2µl [^3H]-Putrescine, 120µl Putrescine) to 20µl sample, 20µl scraping buffer for blank control , 20 µl (18µl scraping buffer + 2µl TGase II) for positive control. Samples were mixed in 15ml tubes, the tubes were shaken before putting them into a 28°C water bath for 30 minutes. Reactions were slowed down in an ice bath. 80µl of the incubation mixture was adsorbed onto paper disks. These were immediately dropped into cold 10% TCA (0.1% Putrescine) and washed with agitation for 7 minutes, followed by 2 additional washes with 5% TCA (0.05% putrescine) for 5~7 minutes, and once more with cold (-20°C) 95% ethanol for 5 minutes. Paper disks were dried and placed into 5ml Aquasol, and counted in a Liquid Scintillation Counter. Protein concentration determination was conducted by the Bradford method.

RAR α = assay: Western blot of rat lung tissue after inhaled 13-cis RA; conditions: for upregulating expression of lung tissue RAR (α): daily deposited dose of 6.4mg/kg/day
Protocol: (§2) Rats (n=97) (Sprague-Dawley from Charles River) were divided into five experimental groups and were given varying amounts of 13-cis RA by inhalation. The experimental groups were as follows (Table 4) :1.Vehicle (10/9 mix of PEG 300 and Ethanol with 0.5% of ascorbic acid and 0.5% phosphatidyl choline) control, day 1: rats (19) inhaled vehicle for 2 hr for one day; 2. High dose 13-cis RA, day 1: rats (22) inhaled a solution containing 13-cis-RA at a concentration of 104µg/liter (projected daily inhaled dose 10mg/kg body weight) for 2 hr for one day; 3. High dose 13-cis RA, day 17: rats (22) inhaled the same solution as in 2 for 2 hr each day for 17 days; 4. Vehicle control, day 28: rats (16) inhaled vehicle as for group 1 for a period of 28 days; 5. Middle dose 13-cis RA, day 28: rats (18) inhaled a solution containing 13-cis-RA at a concentration of 31µg/liter (projected daily inhaled dose 3mg/kg body weight) for 2 hr for each of 28 days.
as §1
(§3) Polyclonal rabbit anti-mouse antibodies against RAR, and (SANTA CRUZ Biotechnology Inc., San Francisco, CA) were used. BM Chemiluminescense Western Blotting Kit (Mouse/Rabbit) was used (Boehringer Mannheim Corporation, Indianapolis) for the Westerns.
(§4) Tissues were collected, frozen in dry ice and kept at -70°C until used. 500mg aliquots were diced in small pieces and homogenized in 300µl of cold PBS, using the hand held homogenizer for 2~3 minutes. Sample and washes were centrifuged at 5000xg for 20 minutes. The pellet was suspended in 400 µl of ice-cold Buffer A [2µl 0.5M EDTA, 10µl 100mM EGTA, 50µl 100mM PMSF, 10µl 1M DTT, 10ml (10mM HEPES pH 7.9 + 10mM KCl)], and left at ice temperature for 15 minutes. 25 µl of 10% solution of NP-40 was added and samples were mixed in a vortex vigorously for 10 seconds. Samples were centrifuged at 14,000xg for 1 minute at 4°C and the pellet treated once more in this fashion (resuspended etc.). The supernatant was removed and 100µl of ice-cold Buffer C [4µl 0.5M EDTA, 20µl 100mM EGTA, 20µl 100mM PMSF, 2µl 1 M DTT, 2ml (20mM HEPES pH 7.9 + 0.4M NaCl)] was added. Pellets were resuspended by tapping gently on the bottom of the Eppendorf tubes. Samples were rocked vigorously in a bucket of ice on an orbital shaker for 30 minutes. Samples were centrifuged at 14,000 xg for 5 minutes at 4°C. Protein determination of supernatant was conducted by the Bradford method.
(§5) Samples were prepared by adding one part of the Sample Buffer to one part of the sample and mixing well. Samples were heated at 95°C for 5 minutes to induce denaturation. 5µl of Rainbow Standard and 5µl ofBiotinylated Molecular Marker were added to parallel wells. 20µg protein per sample was loaded in each lane. Electrophoresis was performed with voltage set at 125V for about 1 ~ 1.5 hours. Gel transfer was executed at 25V for 2 hours. […]

RAR β = assay: as above; conditions: for upregulating expression of lung tissue RAR (β): daily deposited dose of 6.4mg/kg/day
Protocol: as §2, §1, §3, §4, §5

RAR γ = assay: as above; conditions: for upregulating expression of lung tissue RAR (γ): daily deposited dose of 6.4mg/kg/day
Protocol: as §2, §1, §3, §4, §5

[1] = High: 240 minutes daily 14 Days, 1872µg/kg total deposited dose
[2] = Low-Middle: 15 minutes daily 14 Days, 117µg/kg total deposited dose
[3] = Middle-High: 120 minutes daily 14 Days, 936µg/kg total deposited dose
[4] = Middle: 45 minutes daily 14 Days, 351µg/kg total deposited dose
[5] = daily deposited dose of 1.9mg/kg/day, day 28

SMILES: CC1=C(/C=C/C(C)=C/C=C/C(C)=C\C(=O)O)C(C)(C)CCC1 [13-cis RA, 13-cis-Retinoic Acid]
- effect on liver TGase II activity (TGase II; inhaled, up to 5.93mg/kg of inhaled dose): no significant effect
- TGase II assay (TGase II; [1]): 0.271 +/- 0.015 picomoles/µg protein/30 min and 0.271 ± 0.015 picomoles/µg protein/30 min
- TGase II assay DPM/µg protein (TGase II; [1]): 19719 DPM/µg protein
- TGase II assay (TGase II; [2]): 0.273 +/- 0.018 picomoles/µg protein/30 min and 0.273 ± 0.018 picomoles/µg protein/30 min
- TGase II assay DPM/µg protein (TGase II; [2]): 21448 DPM/µg protein
- TGase II assay DPM/µg protein (TGase II; Low: 5 minutes daily 14 Days, 39µg/kg total deposited dose): 22705 DPM/µg protein
- TGase II assay (TGase II; Low: 5 minutes daily 14 Days, 39µg/kg total deposited dose, vehicle 0.260): 0.289 +/- 0.007 picomoles/µg protein/30 min and 0.289 ± 0.007 picomoles/µg protein/30 min
- TGase II assay (TGase II; [3]): 0.269 +/- 0.015 picomoles/µg protein/30 min and 0.269 ± 0.015 picomoles/µg protein/30 min
- TGase II assay DPM/µg protein (TGase II; [3]): 20348 DPM/µg protein
- TGase II assay (TGase II; [4]): 0.313 +/- 0.025 picomoles/µg protein/30 min and 0.313 ± 0.025 picomoles/µg protein/30 min
- TGase II assay DPM/µg protein (TGase II; [4]): 24590 DPM/µg protein
- lung RAR (α) induced (RAR α; [5]): 4.7 fold
- upregulating expression of lung tissue RAR (α) (RAR α; day 1): 3.4 fold
- upregulating expression of lung tissue RAR (α) (RAR α; day 17): 4.2 fold
- lung RAR (β) induced (RAR β; [5]): 8.0 fold
- upregulating expression of lung tissue RAR (β) (RAR β; day 1): 7.2 fold
- upregulating expression of lung tissue RAR (β) (RAR β; day 17): 10.0 fold
- lung RAR (γ) induced (RAR γ; [5]): 8.1 fold
- upregulating expression of lung tissue RAR (γ) (RAR γ; day 1): 9.7 fold
- upregulating expression of lung tissue RAR (γ) (RAR γ; day 17): 12.9 fold
